Measured values published in US20080312283A1, “Use of Hydroxylamine Derivates for Inhibiting Vitrectomy-Induced Cataracts” (Othera Pharmaceuticals, Inc., priority 2005, published 2008).

Columns and labels:
cataract = settings: Zigler et al., U.S. Pat. No. 6,001,853; cited from earlier work
[1] = Ocular tissue, urine and plasma levels of total radioactivity following a single intravitreal dose; type: in vivo, New Zealand White rabbits
Method: A randomized, single treatment study, in nine groups of three NZW rabbits per group, was conducted. Animals were assigned to study groups by a computerized randomization program designed to achieve similar body weights per group. Naïve animals received an intra-vitreous injection of the test article at a nominal dose of 2.0 mg*eq [^14C]Tempol-H (1,4-dihydroxy-2,2,6,6-tetramethylpiperidine(2,4,6-^14C3)). A dose of 0.1 mL, containing 2.18 μCi was administered into both eyes. At nine specified time points post dose (1, 30, 60 minutes, 2, 4, 8, 24, 48, and 120 hours), three animals per group were euthanized and terminal samples were collected. The following tissues were harvested from each eye of all animals: aqueous humor, cornea, iris/ciliary body complex, vitreous humor, lens, retina-choroid plexus and optic nerve. Blood was collected from the marginal ear vein of all rabbits into tubes containing K3EDTA; urine was cage-collected daily from three animals up to 120 hour post dosing. Total radioactivity was determined in all samples by liquid scintillation counting.

lens epithelial cells = settings: Mitchell et al. 1991; Krishna et al. 1991; cited from earlier work
[2] = tested on: retinal S-antigen-induced experimental autoimmune uveoretinitis (EAU); settings: systemic injection, rat model (Zamir et al. 1999); cited from earlier work
[3] = New Zealand White, rabbit, in vivo, 8 h

## CC1(C)CC(O)CC(C)(C)N1O [Tempol-H, 1,4-dihydroxy-2,2,6,6-tetramethylpiperidine]
cataract
  anti-cataractogenic effect compared with the corresponding nitroxide: better anti-cataractogenic composition than the corresponding nitroxide
[1]; [3]
  concentration of radioactivity in the aqueous humor: ~30±8 μg eq/g
  concentration of radioactivity in the cornea: ~2±0.1 μg eq/g
  concentration of radioactivity in the iris/ciliary body: ~6±0.5 μg eq/g
  concentration of radioactivity in the lens: ~41±6 μg eq/g
  concentration of radioactivity in the optic nerve: ~4±0.5 μg eq/g
  concentration of radioactivity in the retina-choroid plexus: ~18±2 μg eq/g
  concentration of radioactivity in the vitreous humor: ~25±3 μg eq/g
[1]; one minute post dosing, intravitreal
  tissues with the highest concentrations of radioactivity: retina-choroid plexus, vitreous humor and iris-ciliary body complex
[1]; single intravitreal dose, all sampled ocular tissues, blood and plasma
  levels of total radioactivity in sampled ocular tissues, blood and plasma: Quantifiable levels of total radioactivity were observed in all sampled ocular tissues, blood and plasma
Lens epithelial cells
  protection of lens epithelial cells from oxidative damage: afforded no such protection

## CC1(C)CC(O)CC(C)(C)N1[O] [tempol, 4-hydroxy-2,2,6,6,-tetramethylpiperidine-1-N-oxyl]
[2]
  severity of experimental autoimmune uveoretinitis: reduced the severity
